Measured values as given in patent publication US10787425B2, “Thiazolidinedione derivative and use thereof” (INDUSTRY-ACADEMIC COOPERATION FOUNDATION CHOSUN UNIVERSITY, priority 2016, dated 2020).

Assays:
A549 cells = assay: Measurement of PGE2 concentration in A549 cell medium (ELISA); format: cell-based, human; conditions: for Increment %: PGE2 concentration versus PBS control, 5 μM, 12 hours; for PGE2 concentration: inhibitor 5 μM, medium collected after 12 hours, ELISA
Description: A549 cells were subcultured in RPMI 1640 medium (containing+8% fetal bovine serum (FBS) and antibiotic-antimycotic (AA)) for one week, and then, inoculated in a 6-well plate at 2.5×10^5 cells/mL (5×10^5 cells/well) and cultured for 24 hours in a 5% CO2 incubator at a temperature of 37° C. A549 cells are adenocarcinomic human alveolar basal epithelial cells which are derived from lung tissues. When cells were grown to about 80% confluence, a 15-PGDH inhibitor in 1×PBS buffer was injected at a concentration of 5 μM. To compare the results, the same amount of 1×PBS buffer was injected into a negative control, and, the treated cells were cultured in 5% CO2 incubator. After 12 hours, the medium was collected and the collected medium was assayed to measure PGE2 concentration by using an ELISA Kit (Abcam) according to the manufacturer's instructions. The concentration may be expressed as an exact value by plotting the calibration curve by using the absorbance value after diluting the standard in the medium by concentration.

15-PGDH = 15-PGDH (Homo sapiens (Human), UniProt P15428); assay: 15-PGDH inhibitory activity (NADH at 340 nm); format: biochemical; conditions: concentration inhibiting 50% of 15-PGDH activity; purified 15-PGDH, 21 μM PGE2, 0.25 mM NAD+
Description: The 15-PGDH cDNA plasmid containing the BamHI of the pGEX-2T expression vector and EcoRI restriction enzyme sites was transfected into E. coli BL-21 LysS by using conventional methods used in the art. Then, the transfected cells were cultured in an LB medium (500 ml) containing 50 μg/ml of ampicillin at a temperature of 37° C. and at a rate of 220 rpm until the OD600 reached 0.6. Then, isopropyl beta-D-thiogalactoxide (1 mM) was added and the cells were further cultured at the temperature of 25° C. for 12 hours. The cells were then centrifuged at the gravity of 4,000 g for 30 minutes at a temperature of 4° C. to collect a cell pellet. The cell pellet was dissolved in 20 ml of cell lysis buffer (containing 1×PBS buffer (pH 7.4): 1 mM EDTA and 0.1 mM DTT) and sonicated at a temperature of 4° C. for 14×10 s. The digested cells were centrifuged at the gravity of 4,000 g for 20 minutes at a temperature of 4° C. The supernatant was then slowly loaded onto a glutathione-sepharose 4B column equilibrated at a temperature of 4° C. with cell lysis buffer [containing 1×PBS buffer (pH 7.4), 1 mM EDTA, and 0.1 mM DTT]. Washing was performed thereon by using a dissolution buffer until the OD280 reached 0.005 or less. Then, 15-PGDH was eluted from the glutathione-sepharose 4B column at room temperature for 5 minutes by using an elution buffer [containing 50 mM Tris-HCl (pH 8.0), 10 mM reduced glutathione, 1 mM EDTA, and 0.1 mM DTT). The concentration of the purified enzyme was measured, and the purification level thereof was confirmed by SDS-PAGE.
That is, the cells were treated with a solution including 50 mM Tris-HCl (pH 7.5), 0.1 mM DTT, 0.25 mM (NAD+), 10 μg of purified 15-PGDH enzyme, 21 μM PGE2. and various concentrations (0.0001 μM to 64 μM) of the derivative compound according to the present disclosure. In this case, the total volume of the solution was 2 ml. Then, the absorbance of the reaction mixture was recorded at the wavelength of 340 nm. To measure the activity of the derivative compounds according to the present disclosure, which is an inhibitor of 15-PGDH, the average value of NADH absorbance at 340 nm at various concentrations was obtained from a standard curve.

15-PGDH, sequence (P15428 whole entry): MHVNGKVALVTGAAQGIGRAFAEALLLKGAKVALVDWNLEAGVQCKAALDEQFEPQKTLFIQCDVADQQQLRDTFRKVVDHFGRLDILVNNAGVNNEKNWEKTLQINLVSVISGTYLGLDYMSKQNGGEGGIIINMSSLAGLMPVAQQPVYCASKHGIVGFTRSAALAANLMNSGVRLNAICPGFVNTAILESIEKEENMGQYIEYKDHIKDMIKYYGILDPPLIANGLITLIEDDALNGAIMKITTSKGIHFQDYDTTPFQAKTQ

SMILES	Increment % (A549 cells)	PGE2 concentration (A549 cells)	IC50 (15-PGDH)
COc1cc(/C=C2\SC(=O)NC2=O)ccc1OC(=O)CCc1ccccc1 [Compound 43, (Z)-4-((2,4-dioxothiazolidin-5-ylidene)methyl)-2-methoxyphenyl 3-phenylpropanoate]	113.27%	432.4258 pg/mL	28.6 nM
COc1cc(/C=C2\SC(=O)NC2=O)ccc1OC(=O)CCCc1ccccc1 [Compound 44, (Z)-4-((2,4-dioxothiazolidin-5-ylidene)methyl)-2-methoxyphenyl 4-phenylbutanoate]	299.80%	810.6337 pg/mL	23.9 nM
COc1cc(/C=C2\SC(=O)NC2=O)ccc1OC(=O)CCCCc1ccccc1 [Compound 45, (Z)-4-((2,4-dioxothiazolidin-5-ylidene)methyl)-2-methoxyphenyl 5-phenylpentanoate]	78.78%	362.494 pg/mL	38.9 nM
CCOc1cc(/C=C2\SC(=O)NC2=O)ccc1OC(=O)C1CC1 [Compound 46, (Z)-4-((2,4-dioxothiazolidin-5-ylidene)methyl)-2-ethoxyphenyl cyclopropanecarboxylate]	1.78%	278.8555 pg/mL	2170 nM
CCOc1cc(/C=C2\SC(=O)NC2=O)ccc1OC(=O)C1CCC1 [Compound 47, (Z)-4-((2,4-dioxothiazolidin-5-ylidene)methyl)-2-ethoxyphenyl cyclobutanecarboxylate]	−32.43%	185.1274 pg/mL	1620 nM
CCOc1cc(/C=C2\SC(=O)NC2=O)ccc1OC(=O)C1CCCC1 [Compound 48, (Z)-4-((2,4-dioxothiazolidin-5-ylidene)methyl)-2-ethoxyphenyl cyclopentanecarboxylate]	−22.79%	211.539 pg/mL	1400 nM
CCOc1cc(/C=C2\SC(=O)NC2=O)ccc1OC(=O)CC1CCCC1 [Compound 49, (Z)-4-((2,4-dioxothiazolidin-5-ylidene)methyl)-2-ethoxyphenyl 2-cyclopentylacetate]	9.34%	299.5683 pg/mL	128 nM
CCOc1cc(/C=C2\SC(=O)NC2=O)ccc1OC(=O)CCC1CCCC1 [Compound 50, (Z)-4-((2,4-dioxothiazolidin-5-ylidene)methyl)-2-ethoxyphenyl 3-cyclopentylpropanoate]	89.67%	519.6554 pg/mL	29 nM
CCOc1cc(/C=C2\SC(=O)NC2=O)ccc1OC(=O)C1CCCCC1 [Compound 51, (Z)-4-((2,4-dioxothiazolidin-5-ylidene)methyl)-2-ethoxyphenyl cyclohexanecarboxylate]	3.34%	283.1296 pg/mL	549 nM
CCOc1cc(/C=C2\SC(=O)NC2=O)ccc1OC(=O)CC1CCCCC1 [Compound 52, (Z)-4-((2,4-dioxothiazolidin-5-ylidene)methyl)-2-ethoxyphenyl 2-cyclohexylacetate]	−18.49%	223.32 pg/mL	32.8 nM
CCOc1cc(/C=C2\SC(=O)NC2=O)ccc1OC(=O)CCCC1CCCCC1 [Compound 54, (Z)-4-((2,4-dioxothiazolidin-5-ylidene)methyl)-2-ethoxyphenyl 4-cyclohexylbutanoate]	202.57%	828.9774 pg/mL	23.8 nM
CCOc1cc(/C=C2\SC(=O)NC2=O)ccc1OC(=O)CCCCC1CCCCC1 [Compound 55, (Z)-4-((2,4-dioxothiazolidin-5-ylidene)methyl)-2-ethoxyphenyl 5-cyclohexylpentanoate]	7.8%	295.349 pg/mL	34.4 nM
CCOc1cc(/C=C2\SC(=O)NC2=O)ccc1OC(=O)c1ccccc1.O=C(O)c1ccccc1 [Compound 56, (Z)-4-((2,4-dioxothiazolidin-5-ylidene)methyl)-2-ethoxyphenyl benzoate]	−31.65%	108.7675 pg/mL	298 nM
CCOc1cc(/C=C2\SC(=O)NC2=O)ccc1OC(=O)Cc1ccccc1 [Compound 57, (Z)-4-((2,4-dioxothiazolidin-5-ylidene)methyl)-2-ethoxyphenyl 2-phenylacetate]	−17.46%	131.3485 pg/mL	118 nM
CCOc1cc(/C=C2\SC(=O)NC2=O)ccc1OC(=O)CCc1ccccc1 [Compound 58, (Z)-4-((2,4-dioxothiazolidin-5-ylidene)methyl)-2-ethoxyphenyl 3-phenylpropanoate]	7.97%	171.8161 pg/mL	94.3 nM
CCOc1cc(/C=C2\SC(=O)NC2=O)ccc1OC(=O)CCCCc1ccccc1 [Compound 60, (Z)-4-((2,4-dioxothiazolidin-5-ylidene)methyl)-2-ethoxyphenyl 5-phenylpentanoate]	88.87%	300.5549 pg/mL	58.4 nM
O=C1NC(=O)/C(=C/c2ccc(OC(=O)C3CC3)cc2)S1 [Compound 61, (Z)-4-((2,4-dioxothiazolidin-5-ylidene)methyl)phenyl cyclopropanecarboxylate]	−99.97%	0.04774 pg/mL	1410 nM
O=C1NC(=O)/C(=C/c2ccc(OC(=O)C3CCCC3)cc2)S1 [Compound 63, (Z)-4-((2,4-dioxothiazolidin-5-ylidene)methyl)phenyl cyclopentanecarboxylate]	49.33%	237.6336 pg/mL	179 nM
O=C(CC1CCCC1)Oc1ccc(/C=C2\SC(=O)NC2=O)cc1 [Compound 64, (Z)-4-((2,4-dioxothiazolidin-5-ylidene)methyl)phenyl 2-cyclopentylacetate]	25.34%	199.4576 pg/mL	52.1 nM
O=C(CCC1CCCC1)Oc1ccc(/C=C2\SC(=O)NC2=O)cc1 [Compound 65, (Z)-4-((2,4-dioxothiazolidin-5-ylidene)methyl)phenyl 3-cyclopentylpropanoate]	78.97%	284.8007 pg/mL	23.2 nM
O=C1NC(=O)/C(=C/c2ccc(OC(=O)C3CCCCC3)cc2)S1 [Compound 66, (Z)-4-((2,4-dioxothiazolidin-5-ylidene)methyl)phenyl cyclohexanecarboxylate]	2.49%	132.3901 pg/mL	88.8 nM
O=C(CC1CCCCC1)Oc1ccc(/C=C2\SC(=O)NC2=O)cc1 [Compound 67, (Z)-4-((2,4-dioxothiazolidin-5-ylidene)methyl)phenyl 2-cyclohexylacetate]	8.34%	139.9468 pg/mL	30.5 nM
O=C(CCCC1CCCCC1)Oc1ccc(/C=C2\SC(=O)NC2=O)cc1 [Compound 69, (Z)-4-((2,4-dioxothiazolidin-5-ylidene)methyl)phenyl 4-cyclohexylbutanoate]	134.45%	302.8477 pg/mL	26.1 nM
O=C(CCCCC1CCCCC1)Oc1ccc(/C=C2\SC(=O)NC2=O)cc1 [Compound 70, (Z)-4-((2,4-dioxothiazolidin-5-ylidene)methyl)phenyl 5-cyclohexylpentanoate]	69.97%	219.5565 pg/mL	50.4 nM
